In paper PMC13242511, “Disrupting Notch signalling by a small molecule inhibiting dihydroorotate dehydrogenase activity” (Scientific Reports, 2026):
Read-outs that look alike come from different tables or passages of the source. One block for each molecule: values may come before it.

Experiments:
[1] = biological target: γ-secretase complex (Homo sapiens, UniProt P49768); assay: APP-C99 counter assay (GSI reporter assay); format: cell-based; set-up: AUC APP: scale not given here; conditions: for Hill-slope: 14p APP assay DR, bottom constrained to Emax of positive control LY-411575; for AUC APP: area under the 14-point dose-response curve, replicates averaged
Experimental: To this end, we used a previously established reporter gene-based GSI assay (APP-C99) (Fig. 3A), which measures γ-secretase activity through cleavage of amyloid precursor protein (APP), another protein processed by the γ-secretase complex[24]
Plasmids for APP and luciferase are described in[24] and the renilla plasmid described above generated for this project was used to normalize firefly values. 24 h post transfection cells were seeded on compound plates and cells were cultivated for 24 h before luciferase signals were read, as described.
Two-fold concentrations of compounds were diluted in 10 µl cell culture medium and brought to one-fold by seeding 10 µl containing 4000 cells of the respective cell type on each well of a 384-well plate, as described above. Analogous to the previous assays, all plates contained one DMSO and DAPT control column with the Notch reporter cell line (#A1-11) and a DMSO only and Notch inhibitor control plate was read before the measuring the screening plates. In addition, DAPT and DMSO were spotted in a dose response fashion, and a minimum of four replicates were read. Dose-responses of compounds were recorded in triplicates for each concentration reading out the dual luciferase reporters, as described above. Dose response assays were read together in one session. To measure compound effects, the different assays dose–response curves were fitted using the log(inhibitor) vs. response – Variable slope (model: Y = Bottom + (Top–Bottom)/(1 + 10^((LogIC50-X)*HillSlope)) equation.
A DMSO plate was read before measuring luciferase activity of compound spotted plates. APP firefly luciferase reporter assays were read with a signal integration time of 0.1 s, instead of 0.5 s used for the Notch reporter to reduce signal overlap between wells. […] The area-under-the-curve (AUC) was calculated on dose–response curves using Graphpad Prism.

[2] = tested on: Notch signalling; assay: Notch reporter assay (12xCSL firefly luciferase / renilla luciferase, HEK293T Notch1ΔE reporter cell line clone #A1-11); format: cell-based; set-up: AUC Notch: scale not given here; conditions: for AUC Notch: area under the 14-point dose-response curve, replicates averaged; for Bottom (Emax): Emax indicated independent from assay constraints, in % (unit assumed)
From the text: To identify novel Notch inhibitors in an unbiased manner, we generated a novel Notch reporter construct, which records the level of Notch signalling immediately downstream of receptor activation rather than further downstream in the signalling cascade, for example at the level of Hes and Hey proteins (Fig. 1B). […] The reporter construct carries piggy-bac sequences at both ends of the promoter-reporter cassette as well as cSH4 insulator elements to reduce transcriptional noise[21] and was transfected into HEK293T cells. To achieve a robust level of Notch receptor activity in the HEK293T reporter cell line and to confine the search for inhibitors to compounds affecting the receptor function and eliminating the need for ligand activation, a truncated ligand-independent version of the Notch1 receptor, mimicking an S2-cleaved Notch1 receptor (Notch1ΔE) and spontaneously activated by S3-cleavage[22] (Fig. 1C) was introduced into the cell line carrying the reporter construct (Fig. 1D). In addition, an HSV-TK-renilla luciferase plasmid was introduced into the cell line as an internal control for normalisation of the reporter expression (Fig. 1D).
A de novo Notch reporter construct, composed of six dimeric CSL binding sites linked to a basic b-globin promoter and followed by a firefly luciferase gene and a PEST degradation domain was synthesised (GeneArt). The construct was stably introduced into HEK293T cells, and zeocin (0.1 mg/ml) or Puromycin (0.05 mg/ml (ThermoFisher, cat #R25001, #A1113803) were used as selection markers. A clonal cell line (clone #A1) with robust renilla expression and enhanced firefly luciferase expression upon transient transfection of Notch1 ICD or Notch1ΔE constructs was selected, and a UB6 promoter-Notch1DE construct was stably introduced into this cell line using Blasticidin (0.1 mg/ml; ThermoFisher, cat #A1113903) as a selection marker. Stable cell lines were generated by serial dilution and only clonal colonies were selected for further evaluation. To measure luciferase reporter activity, cells were washed in cold PBS, detached, and collected in pre-warmed cell culture medium and centrifugated for five min at 200xg. The cell pellet was resuspended in medium, cells were counted, and 4,000 cells were seeded in each well of a white 384 well plate (Corning #3670) in 20 µl medium containing either DMSO or the GSI DAPT (N-[N-(3,5-Difluorophenacetyl)-L-alanyl]-S-phenylglycine t-butyl ester, Sigma-Aldrich, cat #565784-M) and incubated for 24 h. The efficacy of the reporter gene system was determined by monitoring the level of luciferase activation in the absence or presence of different amounts of DAPT in several cell clones. Luciferase activity was assessed using the dual-GLO luciferase detection kit from Promega (cat # E2920), following the manufacturer’s instructions. A minimum of two technical replicates were measured per clone using a SpectraMaxi3 plate reader (Molecular Devices). Reporter activity of different clones and in response to DAPT was assessed by normalising firefly (Notch activity) to renilla luciferase signals. Normalised signals of individual clones cultivated in DMSO were then compared to corresponding signals generated with DAPT-treated cells. The cell clone with the strongest signal to control ratio (DMSO to DAPT) was then selected for further exploration (clone #A1-11).
37,966 compounds were spotted by the compound center at SciLifeLab (https://www.scilifelab.se/) on a total of 120 plates (Greiner #781080) at a fixed concentration of 10 µM and the screening process spanned five consecutive sessions. The layout of each plate contained one column for DMSO and one for DAPT controls to determine the quality and reliability of the data. DAPT controls were spotted at 10 µM and DMSO was spotted in an equimolar volume. In addition, plates spotted with only DMSO were utilized to investigate the impact of plate effects before and after each session. […]

[3] = Homo sapiens, HEK-293T, 14-point dose-response, Fig. 4, read-out: approximated IC50, Notch reporter assay
[4] = overview in comparison to compound C, Supplemental Fig. 9

Structure (SMILES): CCc1c(C)sc(NC(=O)C2CCC2)c1C(=O)NCc1cccnc1 [CBK307414]
- Hill-slope [1]: 0.0127
- AUC APP [1]: 416.6
- IC50 [2, 3]: 7.5 µM
- IC50 ([2]; Homo sapiens, HEK-293T, 14p Notch assay DR, bottom constrained to Emax of positive control RO4929097, read-out: approximated IC50): 7.4 µM
- IC50 ([2]; Homo sapiens, HEK-293T, 14p Notch assay DR, log10 value, bottom constrained to Emax of positive control RO4929097, read-out: approximated LogIC50 (converted)): 7.94 µM
- AUC Notch [2]: 311.0

Structure (SMILES): COc1cc(Nc2nc(-c3ccc(F)c(Cl)c3)cn3ccnc23)cc(OC)c1OC [CBK037275]
- Hill-slope [1]: -0.9
- AUC APP [1]: 479.3
- Bottom (Emax) ([2]; 14p Notch assay DR): 90.9
- AUC Notch [2]: 361.0

Structure (SMILES): Cc1cc(O)n(-c2nc3ccccc3s2)n1 [CBK007453]
- Hill-slope [1]: -0.00928
- AUC APP [1]: 674.5
- Bottom (Emax) ([2]; 14p Notch assay DR): 95.0
- IC50 [2, 3]: > 40 µM
- IC50 ([2]; Homo sapiens, HEK-293T, 14p Notch assay DR, bottom constrained to Emax of positive control DAPT, read-out: approximated IC50): > 40 µM
- IC50 ([2]; Homo sapiens, HEK-293T, 14p Notch assay DR, log10 value, bottom constrained to Emax of positive control DAPT, read-out: approximated LogIC50 (converted)): > 40 µM
- AUC Notch [2]: 628.0

Now from value to molecule, other results behind:

- Hill-slope [1]: -0.0118
- remaining activity at 10 µM ([1]; 24 h, 10µM, APP-C99 counter assay, read-out: 3p-DR in % of DMSO counter): 152%
- remaining activity at 25 µM ([1]; 24 h, 25µM, APP-C99 counter assay, read-out: 3p-DR in % of DMSO counter): 184%
- remaining activity at […] ([1]; 24 h, 1,25µM, APP-C99 counter assay, read-out: 3p-DR in % of DMSO counter): 147%
Structure (SMILES): CC(=O)N1CCc2sccc2C1c1ccccc1NCc1ccoc1 (stereo not drawn) [CBK286432]
- activity at 10 µM ([2]; Homo sapiens, HEK-293T, 10 µM, primary screen, 24 h, unit from Fig. 2 legend, read-out: Primary screen at 10 µM (Notch reporter signal)): 37.6%
- activity at 10 µM ([2]; Homo sapiens, HEK-293T, 10 µM, three-dose confirmation screen, unit from Fig. 2 legend, read-out: Hit confirmation at 10 µM (Notch reporter signal)): 57.2%
- activity at 10 µM ([2]; Homo sapiens, HEK-293T, 10µM, 3-point DR confirmation screen, Notch reporter assay, read-out: inhibitor ratio in % of DMSO in 3 point DR): 57.2%
- activity at 10 µM ([2]; Homo sapiens, HEK-293T, 10 µM, sheet conf vs counter 10 µM, same values as 3-point DR confirmation screen, read-out: Confirmation screen): 57.2%
- activity at 25 µM ([2]; Homo sapiens, HEK-293T, 25µM, 3-point DR confirmation screen, Notch reporter assay, read-out: inhibitor ratio in % of DMSO in 3 point DR): 45.5%
- activity at 25 µM ([2]; Homo sapiens, HEK-293T, 25 µM, Notch reporter 3-point dose-confirmation assay, sheet "conf vs counter 25 µM", read-out: Confirmation screen): 45.5%
- activity ([2]; Homo sapiens, HEK-293T, 1,25µM, 3-point DR confirmation screen, Notch reporter assay, read-out: inhibitor ratio in % of DMSO in 3 point DR): 88.7%

- Hill-slope [1]: -1.0
- AUC APP [1]: 698.8
- approximated IC50, Notch reporter assay ([2]; 14-point dose-response, Fig. 4): Indeterminate
Structure (SMILES): Cc1cc(C)c2[nH]c(C(=O)N[C@H](c3ccccc3)c3ccnn3C)c(C)c2c1 [CBK315984]
- Bottom (Emax) ([2]; 14p Notch assay DR): 96.7
- AUC Notch [2]: 607.0

- APP assay [1, 4]: active, potency n.d.
Structure (SMILES): CC(C)[C@H](O)C(=O)N[C@@H](C)C(=O)N[C@@H]1C(=O)N(C)CCc2ccccc21 [LY-450139, Semagacestat, reference compound]
- reporter signal in % of DMSO ([2]; 10 µM, inhibitor controls, Supplemental Fig. 2A): 52%
- Notch assay [2, 4]: active, potency n.d.
